Molecular target: T1, histamine H4 receptor (Homo sapiens, UniProt Q9H3N8)
T1 construct: expressed in transfected cells; host or cells: HEK293SFM cells (membrane preparation)
Assay: Inhibition of histamine H4 receptor (Table A1; H4 membrane binding assay)
Conditions: for IC50: histamine H4 receptor, "> a" = exceeds experiment limit
Summary of the method: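 Membranes came from recombinant HEK293SFM cells expressing human H4, homogenized in 50 mM Tris-HCl pH 7.5 with protease inhibitors. Nonspecific binding was set with 1000× unlabeled ligand. Bound radioligand was separated on PEI-treated GF/B filters and counted by liquid scintillation.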

| IC50 [nM] | inhibition at 1 µM [%] | SMILES |
| --- | --- | --- |
| 40 | – | CC1Cc2ccc(C3CCN(C(=O)N(C)C)CC3)cc2CN1c1cc(N2CCN(C)CC2)nc(N)n1 (centres unmarked) [Example 141, 4-{2-[2-Amino-6-(4-methylpiperazin-1-yl)pyrimidin-4-yl]-3-methyl-1,2,3,4-tetrahydroisoquinolin-7-yl}-N,N-dimethylpiperidine-1-carboxamide] |
| 86 | – | CC1Cc2ccc(-c3ccnc(C(=O)N4CCCC4)c3)cc2CN1c1cc(N2CCN(C)CC2)nc(N)n1 (single isomer, unassigned) [Example 64B, 4-(4-methylpiperazin-1-yl)-6-[3-methyl-7-[2-(pyrrolidin-1-ylcarbonyl)pyridin-4-yl]-3,4-dihydroisoquinolin-2(1H)-yl]pyrimidin-2-amine] |
| 51 | – | CC1Cc2ccc(-c3cnn(C)c3)cc2CN1c1cc(N2CCCNCC2)nc(N)n1 (centres unmarked) [Example 122, 4-(1,4-Diazepan-1-yl)-6-[3-methyl-7-(1-methyl-1H-pyrazol-4-yl)-3,4-dihydroisoquinolin-2(1H)-yl]pyrimidin-2-amine] |
| 172 | – | CC1Cc2ccc(-c3ccc(C(=O)N4CC[C@@H](O)C4)nc3)cc2CN1c1cc(N2CCN(C)CC2)nc(N)n1 (single isomer, unassigned) [Example 56B] |
| 153 | – | CCNC(=O)c1ccc(-c2ccc3c(c2)CN(c2cc(N4CCN(C)CC4)nc(N)n2)C(C)C3)nc1 (single isomer, unassigned) [Example 71, 6-{2-[2-Amino-6-(4-methylpiperazin-1-yl)pyrimidin-4-yl]-3-methyl-1,2,3,4-tetrahydroisoquinolin-7-yl}-N-ethylnicotinamide] |
| 81 | – | CN1CCN(c2cc(N3CCc4ccc(N5CCC(c6ccc(=O)n(C)c6)CC5)cc4C3)nc(N)n2)CC1 [Example 42, 5-(1-{2-[2-Amino-6-(4-methylpiperazin-1-yl)pyrimidin-4-yl]-1,2,3,4-tetrahydroisoquinolin-7-yl}piperidin-4-yl)-1-methylpyridin-2(1H)-one] |
| 44 | – | CC1Cc2ccc(-c3cnn(CC4(C#N)CC4)c3)cc2CN1c1cc(N2CCN(C)CC2)nc(N)n1 (single isomer, unassigned) [Example 97A, 1-[(4-{2-[2-amino-6-(4-methylpiperazin-1-yl)pyrimidin-4-yl]-3-methyl-1,2,3,4-tetrahydroisoquinolin-7-yl}-1H-pyrazol-1-yl)methyl]cyclopropanecarbonitrile] |
| 91 | – | CC1Cc2ccc(-c3cnn(C)c3)cc2CN1c1cc(N2CCCC(N)C2)nc(N)n1 (stereo in doubt) [Example 119, 4-[(3S)-3-Aminopiperidin-1-yl]-6-[3-methyl-7-(1-methyl-1H-pyrazol-4-yl)-3,4-dihydroisoquinolin-2(1H)-yl]pyrimidin-2-amine] |
| 26 | – | CC1Cc2ccc(-c3cnn(CCC#N)c3)cc2CN1c1cc(N2CCN(C)CC2)nc(N)n1 (single isomer, unassigned) [Example 96A, 3-(4-{2-[2-amino-6-(4-methylpiperazin-1-yl)pyrimidin-4-yl]-3-methyl-1,2,3,4-tetrahydroisoquinolin-7-yl}-1H-pyrazol-1-yl)propanenitrile] |
| 99 | – | CC1Cc2ccc(-c3ccc(C(=O)N4CC(C#N)C4)nc3)cc2CN1c1cc(N2CCN(C)CC2)nc(N)n1 (single isomer, unassigned) [Example 54A, 1-[(5-{2-[2-amino-6-(4-methylpiperazin-1-yl)pyrimidin-4-yl]-3-methyl-1,2,3,4-tetrahydroisoquinolin-7-yl}pyridin-2-yl)carbonyl]azetidine-3-carbonitrile] |
| 35 | – | CC1Cc2ccc(-c3cnn(CCO)c3)cc2CN1c1cc(N2CCN(C)CC2)nc(N)n1 (single isomer, unassigned) [Example 110, 2-(4-{2-[2-Amino-6-(4-methylpiperazin-1-yl)pyrimidin-4-yl]-3-methyl-1,2,3,4-tetrahydroisoquinolin-7-yl}-1H-pyrazol-1-yl)ethanol] |
| 104 | – | CC1Cc2ccc(-c3ccn(C)n3)cc2CN1c1cc(N2CCN(C)CC2)nc(N)n1 (single isomer, unassigned) [Example 85B, 4-[3-Methyl-7-(1-methyl-1H-pyrazol-3-yl)-3,4-dihydroisoquinolin-2(1H)-yl]-6-(4-methylpiperazin-1-yl)pyrimidin-2-amine] |
| 63 | – | CC1Cc2ccc(-c3ccc(C(=O)N[C@H](C)CO)nc3)cc2CN1c1cc(N2CCN(C)CC2)nc(N)n1 (single isomer, unassigned) [Example 51B] |
| 61 | – | CN1CCN(c2cc(N3CCc4ccc(-c5cnc(Cl)c(F)c5)cc4C3)nc(N)n2)CC1 [Example 6, 4-[7-(6-Chloro-5-fluoropyridin-3-yl)-3,4-dihydroisoquinolin-2(1H)-yl]-6-(4-methylpiperazin-1-yl)pyrimidin-2-amine] |
| 367 | – | CN1CCN(c2cc(N3CCc4ccc(Oc5ccc(C#N)c(Cl)c5)cc4C3)nc(N)n2)CC1 [Example 22, 4-({2-[2-Amino-6-(4-methylpiperazin-1-yl)pyrimidin-4-yl]-1,2,3,4-tetrahydroisoquinolin-7-yl}oxy)-2-chlorobenzonitrile] |
| 15.3 | – | CC1Cc2ccc(-c3ccn(Cc4ccccn4)n3)cc2CN1c1cc(N2CCN(C)CC2)nc(N)n1 (single isomer, unassigned) [Example 155, 4-(4-Methylpiperazin-1-yl)-6-[3-methyl-7-[1-(pyridin-2-ylmethyl)-1H-pyrazol-3-yl]-3,4-dihydroisoquinolin-2(1H)-yl]pyrimidin-2-amine] |
| 59 | – | CNC(=O)c1cnc(-c2ccc3c(c2)CN(c2cc(N4CCN(C)CC4)nc(N)n2)C(C)C3)s1 (centres unmarked) [Example 133, 2-{2-[2-amino-6-(4-methylpiperazin-1-yl)pyrimidin-4-yl]-3-methyl-1,2,3,4-tetrahydroisoquinolin-7-yl}-N-methyl-1,3-thiazole-5-carboxamide] |
| 53 | – | CC1Cc2ccc(-c3cnn(C(C)C)c3)cc2CN1c1cc(N2CCN(C)CC2)nc(N)n1 (single isomer, unassigned) [Example 105, 4-[7-(1-Isopropyl-1H-pyrazol-4-yl)-3-methyl-3,4-dihydroisoquinolin-2(1H)-yl]-6-(4-methylpiperazin-1-yl)pyrimidin-2-amine] |
| > 1000 | 35 | CN1CCN(c2cc(N3CCc4ccc(-c5cnc(N6CCN(C(=O)OC(C)(C)C)CC6)nc5)cc4C3)nc(N)n2)CC1 [Example 8, tert-Butyl 4-(5-{2-[2-amino-6-(4-methylpiperazin-1-yl)pyrimidin-4-yl]-1,2,3,4-tetrahydroisoquinolin-7-yl}pyrimidin-2-yl)piperazine-1-carboxylate] |
| 42 | – | CCn1cc(-c2ccc3c(c2)CN(c2cc(N4CCN(C)CC4)nc(N)n2)C(C)C3)cn1 (single isomer, unassigned) [Example 107, 4-[7-(1-Ethyl-1H-pyrazol-4-yl)-3-methyl-3,4-dihydroisoquinolin-2(1H)-yl]-6-(4-methylpiperazin-1-yl)pyrimidin-2-amine] |
| 39 | – | CN1CCN(c2cc(N3CCc4ccc(N5CCC(c6ccc(C(N)=O)cc6)CC5)cc4C3)nc(N)n2)CC1 [Example 40, 4-(1-{2-[2-Amino-6-(4-methylpiperazin-1-yl)pyrimidin-4-yl]-1,2,3,4-tetrahydroisoquinolin-7-yl}piperidin-4-yl)benzamide] |
| 145 | – | CN1CCN(c2cc(N3Cc4ccccc4C[C@H]3CO)nc(N)n2)CC1 [Example 15, {(3S)-2-[2-Amino-6-(4-methylpiperazin-1-yl)pyrimidin-4-yl]-1,2,3,4-tetrahydroisoquinolin-3-yl}methanol] |

Source: US20130244999A1, “Substituted Heterocyclic Compounds” (Incyte Corporation, priority 2008, published 2013)
